This passage reports T/C results from PubChem BioAssay AID330 (DTP/NCI, 2004).

In this experiment the test system is P388 leukemia ip, CD2F1 mice, survival T/C. Description: NCI In Vivo Anticancer Drug Screen. Data for tumor model P388 Leukemia (intraperitoneal) in CD2F1 (CDF1) mice. The settings on record: endpoint: median survival time, higher = longer survival. The essentials:
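Mice carrying the transplanted tumor received test compound or vehicle. Survival was recorded in each group, and the value is the treated-group measurement divided by that of the vehicle-treated control group.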

The mark [1] stands for this setting: dose: 100.0 mg/kg/injection, schedule: Q01DX001 (ip), vehicle: saline with Tween-80.
Where [2] appears, read: dose: 25.0 mg/kg/injection, schedule: Q01DX005 (ip), vehicle: Klucel (hydroxypropylcellulose) (HPC).
The mark [3] stands for this setting: dose: 50.0 mg/kg/injection, schedule: Q01DX005 (ip), vehicle: Klucel (hydroxypropylcellulose) (HPC).
[4] abbreviates: dose: 100.0 mg/kg/injection, schedule: Q01DX005 (ip), vehicle: Klucel (hydroxypropylcellulose) (HPC).
The mark [5] stands for this setting: dose: 50.0 mg/kg/injection, schedule: Q01DX009 (ip), vehicle: Klucel (hydroxypropylcellulose) (HPC).
[6] abbreviates: dose: 100.0 mg/kg/injection, schedule: Q01DX009 (ip), vehicle: Klucel (hydroxypropylcellulose) (HPC).
[7] abbreviates: dose: 200.0 mg/kg/injection, schedule: Q01DX009 (ip), vehicle: Klucel (hydroxypropylcellulose) (HPC).
[8] abbreviates: dose: 200.0 mg/kg/injection, schedule: Q01DX005 (ip), vehicle: Klucel (hydroxypropylcellulose) (HPC).
[9] abbreviates: dose: 50.0 mg/kg/injection, schedule: Q01DX009 (ip), vehicle: saline with Tween-80.
Setting [10] is: dose: 100.0 mg/kg/injection, schedule: Q01DX009 (ip), vehicle: saline with Tween-80.
Setting [11] is: dose: 200.0 mg/kg/injection, schedule: Q01DX009 (ip), vehicle: saline with Tween-80.
[12] abbreviates: dose: 12.5 mg/kg/injection, schedule: Q01DX009 (ip), vehicle: Klucel (hydroxypropylcellulose) (HPC).

Where “and” joins values, the source holds several entries; their conditions need not be identical. Identical values can stand only once. Inconclusive results and toxic doses are left out. Bridge positions count the residues as written; N and C are the ends. Peptide text beside a SMILES is read from it.

Consider `Nc1cc(Cl)c2[nH]c(-c3ccccc3)nc2n1`, for which the T/C is 96 % of control (dose: 50.0 mg/kg/injection, schedule: Q01DX001 (ip), vehicle: saline with Tween-80) and 94 % of control under setting [1].
With `O=C(N/N=C/c1cc(Cl)cc(Cl)c1[O-])c1ccccc1.O=C(N/N=C/c1cc(Cl)cc(Cl)c1[O-])c1ccccc1.[Zn+2]`, the T/C is 92 % of control under setting [1]; 94 % of control (dose: 200.0 mg/kg/injection, schedule: Q01DX001 (ip), vehicle: saline with Tween-80); 92 % of control (dose: 400.0 mg/kg/injection, schedule: Q01DX001 (ip), vehicle: saline with Tween-80).
For `CC(=O)OC1OC(CS[As](C)C)C(OC(C)=O)C(OC(C)=O)C1OC(C)=O` (stereo not drawn), the T/C runs as follows: (dose: 50.0 mg/kg/injection, schedule: Q01DX009 (ip), vehicle: saline) 104 % of control; (dose: 100.0 mg/kg/injection, schedule: Q01DX009 (ip), vehicle: saline) 106 % of control; (dose: 200.0 mg/kg/injection, schedule: Q01DX009 (ip), vehicle: saline) 104 % of control.
With `CN(C)c1ccc2c(SCC(=O)OCC(=O)C3(O)CCC4C5CCC6=CC(=O)C=CC6(C)C5C(O)CC43C)c3ccc(N(C)C)cc3nc2c1` (stereo not drawn), the T/C was 98 % of control and 97 % of control (dose: 12.5 mg/kg/injection, schedule: Q01DX005 (ip), vehicle: Klucel (hydroxypropylcellulose) (HPC)); 111 % of control and 93 % of control under setting [2]; 123 % of control and 96 % of control under setting [3]; 118 % of control and 122 % of control under setting [4].
With `O=C(O)c1ncn2c(=O)n(CCCl)nnc12`, the T/C (dose: 60.0 mg/kg/injection, schedule: Q01DX005 (ip), vehicle: Klucel (hydroxypropylcellulose) (HPC)) was 118 % of control.
Regarding `Cc1nc2scc(-c3ccc(Cl)cc3)n2c(=O)c1CN1CCCCC1`, the T/C (dose: 50.0 mg/kg/injection, schedule: Q04DX002 (ip), vehicle: Klucel (hydroxypropylcellulose) (HPC)) was 97 % of control; the T/C (dose: 100.0 mg/kg/injection, schedule: Q04DX002 (ip), vehicle: Klucel (hydroxypropylcellulose) (HPC)) was 95 % of control; the T/C (dose: 200.0 mg/kg/injection, schedule: Q04DX002 (ip), vehicle: Klucel (hydroxypropylcellulose) (HPC)) was 97 % of control.
Consider `CC12CC3(Br)CC(Br)(C1)CC(CC(=O)O)(C2)C3`, for which the T/C was 103 % of control under setting [5], 112 % of control under setting [6] and 112 % of control under setting [7].
Turning to `CCCN=C(c1ccccc1C=O)c1c2ccccc2cn1CCC`, the T/C is 114 % of control (dose: 7.5 mg/kg/injection, schedule: Q01DX005 (ip), vehicle: saline + Tween-80 + alcohol); 124 % of control (dose: 15.0 mg/kg/injection, schedule: Q01DX005 (ip), vehicle: saline + Tween-80 + alcohol); 119 % of control (dose: 30.0 mg/kg/injection, schedule: Q01DX005 (ip), vehicle: saline + Tween-80 + alcohol).
As for `OCC(O)C(O)C(O)C(O)C(O)c1nc2ccccc2[nH]1` (stereo not drawn), the T/C under setting [3] was 98 % of control, the T/C under setting [4] was 102 % of control and the T/C under setting [8] was 100 % of control.
Consider `Nc1ccc2nc3ccccc3c(NCCCCCCCCNc3c4ccccc4nc4ccc(N)cc34)c2c1`, for which the T/C was 160 % of control (dose: 2.5 mg/kg/injection, schedule: Q01DX009 (ip), vehicle: water) and 160 % of control (dose: 5.0 mg/kg/injection, schedule: Q01DX009 (ip), vehicle: water).
For the compound `CCCCc1ccc(NC(=O)On2c3ccccc3c3ccccc32)cc1`, the T/C under setting [3] is 96 % of control, the T/C under setting [4] was 94 % of control and the T/C under setting [8] is 95 % of control.
Take `CCC(C)C1NC(=O)C(CC(C)C)NC(=O)C(C(C)C)NC(=O)C2CSSCC(NC1=O)C(=O)N2` (stereo not drawn) (cyclo(CCVLI); disulfide 1-2; configuration not given here): the T/C was 106 % of control (dose: 31.25 micrograms/kg/injection, schedule: Q01DX009 (ip), vehicle: Klucel (hydroxypropylcellulose) (HPC)); 100 % of control (dose: 62.5 micrograms/kg/injection, schedule: Q01DX009 (ip), vehicle: Klucel (hydroxypropylcellulose) (HPC)); 94 % of control (dose: 125.0 micrograms/kg/injection, schedule: Q01DX009 (ip), vehicle: Klucel (hydroxypropylcellulose) (HPC)); 97 % of control (dose: 250.0 micrograms/kg/injection, schedule: Q01DX009 (ip), vehicle: Klucel (hydroxypropylcellulose) (HPC)); 99 % of control (dose: 500.0 micrograms/kg/injection, schedule: Q01DX009 (ip), vehicle: Klucel (hydroxypropylcellulose) (HPC)); 97 % of control (dose: 1000.0 micrograms/kg/injection, schedule: Q01DX009 (ip), vehicle: Klucel (hydroxypropylcellulose) (HPC)).
As for `CCCC/[N+]([O-])=N/O`, the T/C was 103 % of control (dose: 3.0 mg/kg/injection, schedule: Q01DX005 (ip), vehicle: Klucel (hydroxypropylcellulose) (HPC)); 95 % of control (dose: 6.0 mg/kg/injection, schedule: Q01DX005 (ip), vehicle: Klucel (hydroxypropylcellulose) (HPC)); 100 % of control (dose: 12.0 mg/kg/injection, schedule: Q01DX005 (ip), vehicle: Klucel (hydroxypropylcellulose) (HPC)); 101 % of control (dose: 24.0 mg/kg/injection, schedule: Q01DX005 (ip), vehicle: Klucel (hydroxypropylcellulose) (HPC)).
For the compound `CSc1ccc(N2C(N)=NC(N)=NC2(C)C)cc1`, the T/C runs as follows: (dose: 6.25 mg/kg/injection, schedule: Q01DX005 (ip), vehicle: saline with Tween-80) 100 % of control; (dose: 12.5 mg/kg/injection, schedule: Q01DX005 (ip), vehicle: saline with Tween-80) 102 % of control; (dose: 25.0 mg/kg/injection, schedule: Q01DX005 (ip), vehicle: saline with Tween-80) 100 % of control.
In the case of `CC1(C)C=C(NC(=O)N2CC2)C(C)(C)N1O`, the T/C by setting is: (dose: 6.25 mg/kg/injection, schedule: Q01DX009 (ip), vehicle: saline with Tween-80) 100 % of control; (dose: 12.5 mg/kg/injection, schedule: Q01DX009 (ip), vehicle: saline with Tween-80) 103 % of control; (dose: 25.0 mg/kg/injection, schedule: Q01DX009 (ip), vehicle: saline with Tween-80) 103 % of control; under setting [9], 117 % of control.
With `CC[N+](C)(C)c1nc(N(C)C)nc(N(C)C)n1`, the T/C was 108 % of control (dose: 6.0 mg/kg/injection, schedule: Q01DX005 (ip), vehicle: saline) and 118 % of control (dose: 12.0 mg/kg/injection, schedule: Q01DX005 (ip), vehicle: saline).
On to `Cc1ccc(S(=O)c2cc(C(C)(C)C)cc(C(C)(C)C)c2O)cc1` (stereo not drawn), for which the T/C runs as follows: under setting [9], 103 % of control; under setting [10], 110 % of control; under setting [11], 88 % of control.
As for `O=C(O)CC(CC(=O)c1ccccc1)c1ccccc1` (stereo not drawn), the T/C reads like this: under setting [12], 104 % of control; (dose: 25.0 mg/kg/injection, schedule: Q01DX009 (ip), vehicle: Klucel (hydroxypropylcellulose) (HPC)) 101 % of control; under setting [5], 103 % of control and 108 % of control; under setting [6], 101 % of control and 102 % of control and 107 % of control; under setting [7], 104 % of control and 94 % of control; (dose: 400.0 mg/kg/injection, schedule: Q01DX009 (ip), vehicle: Klucel (hydroxypropylcellulose) (HPC)) 104 % of control and 93 % of control.
For the compound `CN(C)C(=S)C(O)(c1ccccc1)c1ccccc1`, the T/C is 90 % of control under setting [5], 100 % of control under setting [6] and 97 % of control under setting [7].
Consider `O=c1[nH]c(=S)[nH]cc1Oc1ccc(Cl)cc1Cl`, for which the T/C under setting [9] is 94 % of control; the T/C under setting [10] is 93 % of control; the T/C under setting [11] was 95 % of control; the T/C (dose: 400.0 mg/kg/injection, schedule: Q01DX009 (ip), vehicle: saline with Tween-80) is 108 % of control.
Take `CN(C)CCOCC(O)(c1ccccc1)c1ccccc1`: the T/C is 100 % of control (dose: 50.0 mg/kg/injection, schedule: Q01DX009 (ip), vehicle: suspension in saline) and 103 % of control (dose: 100.0 mg/kg/injection, schedule: Q01DX009 (ip), vehicle: suspension in saline).
In the case of `COC(=O)c1nnn(-c2ccccc2)n1`, the T/C was 99 % of control under setting [2], 101 % of control under setting [3] and 101 % of control under setting [4].
As for `CCSc1nc2ccc(N3C(=O)C=CC3=O)cc2s1`, the T/C reads like this: (dose: 3.12 mg/kg/injection, schedule: Q01DX009 (ip), vehicle: Klucel (hydroxypropylcellulose) (HPC)) 111 % of control; (dose: 6.25 mg/kg/injection, schedule: Q01DX009 (ip), vehicle: Klucel (hydroxypropylcellulose) (HPC)) 119 % of control; under setting [12], 115 % of control.
